How the values were obtained:
Assay type in all cases: biochemical
[1] = biological target: CYP3A4 (Homo sapiens, UniProt P08684); test: Vivid CYP450 Screening kit fluorescence assay
[2] = biological target: T1, CYP1A2 (Homo sapiens, UniProt P05177); test: Vivid CYP450 Screening kit fluorescence assay
T1 sequence (P05177 2-516): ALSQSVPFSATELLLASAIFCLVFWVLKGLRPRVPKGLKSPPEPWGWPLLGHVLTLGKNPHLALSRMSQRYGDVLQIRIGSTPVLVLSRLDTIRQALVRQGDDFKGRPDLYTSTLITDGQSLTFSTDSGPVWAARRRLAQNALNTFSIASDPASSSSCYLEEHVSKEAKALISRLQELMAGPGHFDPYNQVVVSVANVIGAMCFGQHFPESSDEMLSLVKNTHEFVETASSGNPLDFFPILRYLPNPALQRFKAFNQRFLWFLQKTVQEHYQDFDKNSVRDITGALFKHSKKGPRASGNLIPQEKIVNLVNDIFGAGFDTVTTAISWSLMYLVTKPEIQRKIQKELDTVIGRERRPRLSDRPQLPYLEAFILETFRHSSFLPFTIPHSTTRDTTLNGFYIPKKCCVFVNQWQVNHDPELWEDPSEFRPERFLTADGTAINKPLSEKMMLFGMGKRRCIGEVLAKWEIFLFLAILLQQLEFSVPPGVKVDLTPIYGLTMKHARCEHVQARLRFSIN

[3] = biological target: T2, CYP1A1 (Homo sapiens, UniProt P04798); test: P450-Glo CYP1A1 luminescence assay, recombinant enzyme in microsomes
T2 sequence (P04798 1-512): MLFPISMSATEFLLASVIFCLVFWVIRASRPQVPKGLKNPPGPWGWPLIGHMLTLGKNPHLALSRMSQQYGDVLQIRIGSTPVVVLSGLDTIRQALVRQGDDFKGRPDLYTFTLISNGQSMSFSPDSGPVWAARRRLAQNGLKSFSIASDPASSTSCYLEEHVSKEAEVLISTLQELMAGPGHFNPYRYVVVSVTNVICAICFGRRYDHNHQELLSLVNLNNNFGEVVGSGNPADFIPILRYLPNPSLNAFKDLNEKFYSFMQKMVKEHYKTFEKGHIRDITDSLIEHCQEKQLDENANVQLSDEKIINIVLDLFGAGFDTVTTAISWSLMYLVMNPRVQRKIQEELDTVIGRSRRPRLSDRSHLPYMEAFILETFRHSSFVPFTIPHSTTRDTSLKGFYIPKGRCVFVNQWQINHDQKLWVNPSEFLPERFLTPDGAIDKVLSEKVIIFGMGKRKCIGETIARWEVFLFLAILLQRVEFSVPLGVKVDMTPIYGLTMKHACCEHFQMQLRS

[4] = biological target: T2, CYP1A1; test: P450-Glo CYP1A1 luminescence assay, positive control at […]

CYP3A4, sequence (P08684 2-503): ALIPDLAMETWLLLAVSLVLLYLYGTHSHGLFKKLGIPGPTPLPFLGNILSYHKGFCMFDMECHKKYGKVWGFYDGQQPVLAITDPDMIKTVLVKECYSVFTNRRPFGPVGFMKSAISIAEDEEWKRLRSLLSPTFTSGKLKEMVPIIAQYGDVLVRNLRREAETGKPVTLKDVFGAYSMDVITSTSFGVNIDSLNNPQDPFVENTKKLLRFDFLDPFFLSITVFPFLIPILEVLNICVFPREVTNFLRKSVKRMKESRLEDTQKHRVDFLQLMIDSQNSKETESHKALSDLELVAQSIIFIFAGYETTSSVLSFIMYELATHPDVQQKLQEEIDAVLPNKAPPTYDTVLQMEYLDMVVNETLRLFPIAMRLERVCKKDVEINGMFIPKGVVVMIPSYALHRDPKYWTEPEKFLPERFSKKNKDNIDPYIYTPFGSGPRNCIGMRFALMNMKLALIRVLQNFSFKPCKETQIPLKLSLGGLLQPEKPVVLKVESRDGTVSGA

Row | SMILES | IC50 [1] | IC50 [2] | IC50 [3] | P450-Glo CYP1A1 luminescence assay, positive control at 1 μM [4]
1 | CC(=O)O[C@H]1CC(C)(C)C(=C=C/C(C)=C/C=C/C(C)=C/C=C/C=C(C)/C=C/C=C(\C)C(=O)C[C@@]23O[C@]2(C)C[C@@H](O)CC3(C)C)[C@](C)(O)C1 [Fx, fucoxanthin] | 11 µM | 49 µM | 12.5 µM | 
2 | COc1ccc2[nH]c([S+]([O-])Cc3ncc(C)c(OC)c3C)nc2c1 (stereo not shown) [OMP, omeprazole] |  |  |  | significantly inhibited CYP1A1 activity, although the inhibition was weaker than that of omeprazole, a known CYP1A1 inhibitor
